Experimental data from publication PMC3932302 (Clinical cancer research : an official journal of the …, 2013).

Tests used:
Assay type in all cases: cell-based
[1] = target: T1, organic cation transporter 1 (OCT1) (Homo sapiens, UniProt O15245); assay: inhibition of TEA uptake into OCT1-expressing cells at […]; settings: read-out: % inhibition at 50 μmol/L
T1 sequence (O15245 1-554): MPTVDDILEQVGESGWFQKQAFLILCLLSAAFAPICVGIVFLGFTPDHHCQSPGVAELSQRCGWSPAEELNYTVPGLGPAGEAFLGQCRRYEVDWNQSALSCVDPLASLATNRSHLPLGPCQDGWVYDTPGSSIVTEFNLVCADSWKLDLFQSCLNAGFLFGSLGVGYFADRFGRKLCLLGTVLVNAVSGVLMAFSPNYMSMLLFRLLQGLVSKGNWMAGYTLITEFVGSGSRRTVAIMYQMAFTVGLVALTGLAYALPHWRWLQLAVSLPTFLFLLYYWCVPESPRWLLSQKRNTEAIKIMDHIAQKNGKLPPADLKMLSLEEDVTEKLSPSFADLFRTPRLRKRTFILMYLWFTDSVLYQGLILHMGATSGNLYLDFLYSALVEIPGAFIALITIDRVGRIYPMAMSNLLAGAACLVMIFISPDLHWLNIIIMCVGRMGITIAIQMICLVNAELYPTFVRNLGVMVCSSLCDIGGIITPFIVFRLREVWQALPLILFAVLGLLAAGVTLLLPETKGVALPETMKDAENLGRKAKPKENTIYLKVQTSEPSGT

[2] = target: T1, organic cation transporter 1 (OCT1); assay: inhibition of […]TEA uptake into HEK-OCT1 cells at […]
[3] = target: T1, organic cation transporter 1 (OCT1)

## Cc1ccc(NC(=O)c2ccc(CN3CCNCC3)cc2)cc1Nc1nccc(-c2cccnc2)n1 [N-desmethyl imatinib]
[1]
  inhibition at 50 µM: 90.7 ± 1%

## CCN1/C(=C/c2ccc3ccccc3[n+]2CC)C=Cc2ccccc21 [decynium22]
[2]
  inhibition of [14C]TEA uptake into HEK-OCT1 cells at 5 μmol/L: OCT1-dependent TEA uptake was significantly reduced in the presence of the inhibitors prazosin and decynium22 (Fig. 4A)

## COc1cc2nc(N3CCN(C(=O)c4ccco4)CC3)nc(N)c2cc1OC [prazosin]
[3]
  inhibition of [14C]TEA uptake into HEK-OCT1 cells: OCT1-dependent TEA uptake was significantly reduced in the presence of the inhibitors prazosin and decynium22 (Fig. 4A)
